Assay results from patent publication US20250114345A1, “COMPOUNDS AND COMPOSITIONS AS CBP/P300 DEGRADERS AND USES THEREOF” (Oncopia Therapeutics, Inc. d/b/a/ SK Life Science Labs, priority 2023, published 2025).

Molecular target: T1, p300 (Homo sapiens, UniProt Q09472)
T1 construct: host or cells: A549 P300 HiBit cells
Experiment: P300 degradation, HiBit technology in A549 P300 HiBit cells (2 h)
Assay type: cell-based
Conditions: 2 hrs post treatment; for Dmax: A549, A549 P300 HiBit cells; for DC50: A549 P300 HiBit cells
Summary of the method: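 HiBiT knock-in A549 cells received compound in serial dilution at 37 °C under 5% CO2. Remaining tagged protein was quantified by lytic HiBiT luminescence after 10 min shaking at room temperature, yielding potency and maximal degradation.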

T1 sequence (Q09472 whole entry): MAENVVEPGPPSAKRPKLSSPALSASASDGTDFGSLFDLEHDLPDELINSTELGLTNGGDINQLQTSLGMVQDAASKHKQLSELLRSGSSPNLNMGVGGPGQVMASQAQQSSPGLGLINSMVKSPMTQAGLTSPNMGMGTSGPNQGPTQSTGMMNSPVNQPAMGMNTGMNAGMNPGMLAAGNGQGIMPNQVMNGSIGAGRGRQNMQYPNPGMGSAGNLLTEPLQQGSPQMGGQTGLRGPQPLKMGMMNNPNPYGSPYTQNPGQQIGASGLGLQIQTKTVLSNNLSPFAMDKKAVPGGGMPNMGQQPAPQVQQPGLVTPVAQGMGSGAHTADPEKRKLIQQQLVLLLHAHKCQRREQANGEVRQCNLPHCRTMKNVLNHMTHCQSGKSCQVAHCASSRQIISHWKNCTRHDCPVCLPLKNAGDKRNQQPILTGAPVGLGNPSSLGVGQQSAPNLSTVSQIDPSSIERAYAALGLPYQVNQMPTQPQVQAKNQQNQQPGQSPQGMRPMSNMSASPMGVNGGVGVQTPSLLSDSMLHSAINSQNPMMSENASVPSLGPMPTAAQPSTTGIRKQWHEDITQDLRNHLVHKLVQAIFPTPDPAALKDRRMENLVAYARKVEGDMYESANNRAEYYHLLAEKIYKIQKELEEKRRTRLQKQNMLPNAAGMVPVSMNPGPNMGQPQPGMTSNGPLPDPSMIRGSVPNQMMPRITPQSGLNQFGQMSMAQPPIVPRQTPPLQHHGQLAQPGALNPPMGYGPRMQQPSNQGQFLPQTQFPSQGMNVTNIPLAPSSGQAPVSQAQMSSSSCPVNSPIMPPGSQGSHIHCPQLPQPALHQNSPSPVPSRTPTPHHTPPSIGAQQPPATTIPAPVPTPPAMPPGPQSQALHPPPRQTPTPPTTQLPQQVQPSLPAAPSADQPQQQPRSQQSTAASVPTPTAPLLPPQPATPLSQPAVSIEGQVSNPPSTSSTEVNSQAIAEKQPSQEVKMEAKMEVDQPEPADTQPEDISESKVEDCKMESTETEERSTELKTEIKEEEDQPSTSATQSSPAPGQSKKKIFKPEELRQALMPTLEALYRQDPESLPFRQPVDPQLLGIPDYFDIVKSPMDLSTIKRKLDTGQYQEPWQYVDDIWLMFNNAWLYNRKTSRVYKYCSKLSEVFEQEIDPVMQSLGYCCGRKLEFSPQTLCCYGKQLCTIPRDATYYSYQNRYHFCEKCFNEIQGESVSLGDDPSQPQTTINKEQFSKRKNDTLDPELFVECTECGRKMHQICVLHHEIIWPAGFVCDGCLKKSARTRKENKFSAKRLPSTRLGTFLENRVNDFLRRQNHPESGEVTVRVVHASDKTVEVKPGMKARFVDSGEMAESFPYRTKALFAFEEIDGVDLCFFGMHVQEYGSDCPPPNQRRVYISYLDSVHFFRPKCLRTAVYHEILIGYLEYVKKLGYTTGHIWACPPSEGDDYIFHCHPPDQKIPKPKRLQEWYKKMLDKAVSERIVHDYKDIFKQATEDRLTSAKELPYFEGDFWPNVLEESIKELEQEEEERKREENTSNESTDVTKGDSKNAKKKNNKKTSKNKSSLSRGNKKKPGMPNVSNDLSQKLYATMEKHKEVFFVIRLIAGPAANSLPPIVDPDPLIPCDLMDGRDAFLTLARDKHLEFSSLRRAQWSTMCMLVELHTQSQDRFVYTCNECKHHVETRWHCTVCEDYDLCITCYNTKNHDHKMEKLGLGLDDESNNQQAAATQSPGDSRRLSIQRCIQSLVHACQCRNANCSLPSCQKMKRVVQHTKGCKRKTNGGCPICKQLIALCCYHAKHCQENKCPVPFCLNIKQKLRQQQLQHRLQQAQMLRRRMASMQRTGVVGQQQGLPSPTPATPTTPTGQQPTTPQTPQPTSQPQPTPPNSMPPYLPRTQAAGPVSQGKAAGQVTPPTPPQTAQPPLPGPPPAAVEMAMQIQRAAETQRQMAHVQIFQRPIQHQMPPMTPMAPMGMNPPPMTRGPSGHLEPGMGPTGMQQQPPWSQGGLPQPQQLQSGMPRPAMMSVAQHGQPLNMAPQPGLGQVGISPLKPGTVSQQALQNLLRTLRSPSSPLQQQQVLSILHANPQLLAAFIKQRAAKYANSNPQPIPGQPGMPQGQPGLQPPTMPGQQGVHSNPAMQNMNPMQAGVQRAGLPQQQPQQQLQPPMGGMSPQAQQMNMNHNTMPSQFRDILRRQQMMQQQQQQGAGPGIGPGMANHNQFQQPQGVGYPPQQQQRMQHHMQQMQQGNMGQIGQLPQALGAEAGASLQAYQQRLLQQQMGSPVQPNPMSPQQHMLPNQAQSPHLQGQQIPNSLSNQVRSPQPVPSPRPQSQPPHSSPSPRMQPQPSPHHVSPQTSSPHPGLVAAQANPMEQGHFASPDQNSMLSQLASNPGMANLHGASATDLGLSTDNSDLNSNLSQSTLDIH

| Compound | Dmax [%] | DC50 [nM] |
| --- | --- | --- |
| CCc1cc(N(C)c2ccc(-c3cnc(C(=O)NCC#Cc4cccc(NC5CCC(=O)NC5=O)c4)c(C)c3)c(C(F)(F)F)c2)c2cc(C)c(=O)n(C)c2c1 (stereo not shown) [Example B14, N-(3-(3-((2,6-Dioxopiperidin-3-yl)amino)phenyl)prop-2-yn-1-yl)-5-(4-((7-ethyl-1,3-dimethyl-2-oxo-1,2-dihydroquinolin-5-yl)(methyl)amino)-2-(trifluoromethyl)phenyl)-3-methylpicolinamide] | 60 to 79 | 10 to 99 |
| CCc1cc(N(C)c2ccc(-c3cnc(C(=O)NCC#Cc4cccc(NC5CCC(=O)NC5=O)c4)c(C)c3)c(C)c2)c2cc(C)c(=O)n(C)c2c1 (stereo not shown) [Example B15, N-(3-(3-((2,6-Dioxopiperidin-3-yl)amino)phenyl)prop-2-yn-1-yl)-5-(4-((7-ethyl-1,3-dimethyl-2-oxo-1,2-dihydroquinolin-5-yl)(methyl)amino)-2-methylphenyl)-3-methylpicolinamide] | > 80 | 10 to 99 |
| CCc1cc(Oc2ccc(-c3cnc(C(=O)NCC#Cc4cccc(NC5CCC(=O)NC5=O)c4)c(C)c3)nc2)c2cc(C)c(=O)n(C)c2c1 (stereo not shown) [Example B17, N-(3-(3-((2,6-Dioxopiperidin-3-yl)amino)phenyl)prop-2-yn-1-yl)-5-((7-ethyl-1,3-dimethyl-2-oxo-1,2-dihydroquinolin-5-yl)oxy)-5′-methyl-[2,3′-bipyridine]-6′-carboxamide] | < 20 | > 1000 |
| CCc1cc(N(C)c2ccc(-c3cnc(C(=O)NCC#Cc4cccc(NC5CCC(=O)NC5=O)c4)c(C)c3)cc2)c2cc(C)c(=O)n(C)c2c1 (stereo not shown) [Example B18, N-(3-(3-((2,6-Dioxopiperidin-3-yl)amino)phenyl)prop-2-yn-1-yl)-5-(4-((7-ethyl-1,3-dimethyl-2-oxo-1,2-dihydroquinolin-5-yl)(methyl)amino)phenyl)-3-methylpicolinamide] | > 80 | 10 to 99 |
| CCc1cc(N(C)c2ccc(-c3cnc(C(=O)NCC#Cc4cccc(NC5CCC(=O)NC5=O)c4)c(C)c3)c(F)c2)c2cc(C)c(=O)n(C)c2c1 (stereo not shown) [Example B19, N-(3-(3-((2,6-Dioxopiperidin-3-yl)amino)phenyl)prop-2-yn-1-yl)-5-(4-((7-ethyl-1,3-dimethyl-2-oxo-1,2-dihydroquinolin-5-yl)(methyl)amino)-2-fluorophenyl)-3-methylpicolinamide] | > 80 | 10 to 99 |
| Cc1cc(-c2cc3c(cc2F)N(c2cccc4c2cc(C)c(=O)n4C)CCO3)cnc1C(=O)NCC#Cc1ccc2occ(C3CCC(=O)NC3=O)c2c1 (stereo not shown) [Example B21, 5-(4-(1,3-dimethyl-2-oxo-1,2-dihydroquinolin-5-yl)-6-fluoro-3,4-dihydro-2H-benzo[b][1,4]oxazin-7-yl)-N-(3-(3-(2,6-dioxopiperidin-3-yl)benzofuran-5-yl)prop-2-yn-1-yl)-3-methylpicolinamide] | > 80 | 1 to 9.9 |
| Cc1cc2c(N3CCCc4cc(-c5ccc(C(=O)NCC#Cc6ccc7occ(C8CCC(=O)NC8=O)c7c6)nc5)c(C(F)F)cc43)cccc2n(C)c1=O (stereo not shown) [Example B22, 5-(7-(difluoromethyl)-1′,3′-dimethyl-2′-oxo-1′,2′,3,4-tetrahydro-2H-[1,5′-biquinolin]-6-yl)-N-(3-(3-(2,6-dioxopiperidin-3-yl)benzofuran-5-yl)prop-2-yn-1-yl)picolinamide] | > 80 | 1 to 9.9 |
| Cc1cc2c(N3CCCc4nc(-c5ccc(C(=O)NCC#Cc6ccc7occ(C8CCC(=O)NC8=O)c7c6)nc5)ncc43)nc(N3CCC(F)CC3)cc2n(C)c1=O (stereo not shown) [Example B27, N-(3-(3-(2,6-dioxopiperidin-3-yl)benzofuran-5-yl)prop-2-yn-1-yl)-5-(5-(7-(4-fluoro-piperidin-1-yl)-1,3-dimethyl-2-oxo-1,2-dihydro-1,6-naphthyridin-5-yl)-5,6,7,8-tetrahydropyrido[3,2-d]pyrimidin-2-yl) picolinamide] | 60 to 79 | 1 to 9.9 |
| Cc1cc2c(N3CCN(C)c4cc(-c5ccc(C(=O)NCC#Cc6ccc7occ(C8CCC(=O)NC8=O)c7c6)nc5)ncc43)cc(C3CCOCC3)cc2n(C)c1=O (stereo not shown) [Example B31, 5-(4-(1,3-dimethyl-2-oxo-7-(tetrahydro-2H-pyran-4-yl)-1,2-dihydroquinolin-5-yl)-1-methyl-1,2,3,4-tetrahydropyrido[3,4-b]pyrazin-7-yl)-N-(3-(3-(2,6-dioxopiperidin-3-yl)benzofuran-5-yl)prop-2-yn-1-yl) picolinamide] | > 80 | < 1 |
| Cc1cc2c(N3CCN(C)c4nc(-c5ccc(C(=O)NCC#Cc6ccc7occ(C8CCC(=O)NC8=O)c7c6)nc5)ncc43)cccc2n(C)c1=O (stereo not shown) [Example B33, 5-(5-(1,3-dimethyl-2-oxo-1,2-dihydroquinolin-5-yl)-8-methyl-5,6,7,8-tetrahydropteridin-2-yl)-N-(3-(3-(2,6-dioxopiperidin-3-yl)benzofuran-5-yl)prop-2-yn-1-yl)picolinamide] | > 80 | 1 to 9.9 |
| Cc1cc2c(N3CCCc4cc(-c5ccc(C(=O)NCC#Cc6cc7c(C8CCC(=O)NC8=O)cccc7o6)nc5)nnc43)cccc2n(C)c1=O (stereo not shown) [Example B34, 5-(8-(1,3-dimethyl-2-oxo-1,2-dihydroquinolin-5-yl)-5,6,7,8-tetrahydropyrido[2,3-c]pyridazin-3-yl)-N-(3-(4-(2,6-dioxopiperidin-3-yl)benzofuran-2-yl)prop-2-yn-1-yl)picolinamide] | > 80 | < 1 |
| Cc1cc2c(N3CCCc4nc(-c5cnc(C(=O)NCC#Cc6cc7c(C8CCC(=O)NC8=O)cccc7o6)c(Cl)c5)ncc43)cccc2n(C)c1=O (stereo not shown) [Example B36, 3-chloro-5-(5-(1,3-dimethyl-2-oxo-1,2-dihydroquinolin-5-yl)-5,6,7,8-tetrahydropyrido [3,2-d]pyrimidin-2-yl)-N-(3-(4-(2,6-dioxo-piperidin-3-yl)benzofuran-2-yl)prop-2-yn-1-yl)picolinamide] | > 80 | 1 to 9.9 |
| Cc1cc(N2CCN(C)c3cc(-c4ccc(C(=O)NCC#Cc5cc6c(C7CCC(=O)NC7=O)cccc6o5)nc4)ncc32)c2cc(C)c(=O)n(C)c2c1 (stereo not shown) [Example B40, N-(3-(4-(2,6-dioxopiperidin-3-yl)benzofuran-2-yl)prop-2-yn-1-yl)-5-(1-methyl-4-(1,3,7-trimethyl-2-oxo-1,2-dihydroquinolin-5-yl)-1,2,3,4-tetrahydropyrido[3,4-b]pyrazin-7-yl) picolinamide] | > 80 | < 1 |
| Cc1cc2c(N3CCOc4cc(-c5ccc(C(=O)NCC#Cc6ccc7occ(C8CCC(=O)NC8=O)c7c6)nc5)ccc43)cc(C3CCOCC3)cc2n(C)c1=O (stereo not shown) [Example B41, 5-(4-(1,3-dimethyl-2-oxo-7-(tetrahydro-2H-pyran-4-yl)-1,2-dihydroquinolin-5-yl)-3,4-dihydro-2H-benzo[b][1,4]oxazin-7-yl)-N-(3-(3-(2,6-dioxopiperidin-3-yl)benzofuran-5-yl)prop-2-yn-1-yl)picolinamide] | > 80 | 1 to 9.9 |
| CCc1cc(N2CCCc3nc(-c4ccc(C(=O)NCC#Cc5ccc6occ(C7CCC(=O)NC7=O)c6c5)nc4)ncc32)c2cc(C)c(=O)n(C)c2c1 (stereo not shown) [Example B43, N-(3-(3-(2,6-dioxopiperidin-3-yl)benzofuran-5-yl)prop-2-yn-1-yl)-5-(5-(7-ethyl-1,3-dimethyl-2-oxo-1,2-dihydroquinolin-5-yl)-5,6,7,8-tetrahydropyrido[3,2-d]pyrimidin-2-yl) picolinamide] | > 80 | 1 to 9.9 |
| Cc1cc2c(N3CCCc4nc(-c5ccc6c(c5)C(=O)N(CC#Cc5ccc7occ(C8CCC(=O)NC8=O)c7c5)C6)ncc43)cc(C3CCOCC3)cc2n(C)c1=O (stereo not shown) [Example B44, 3-(5-(3-(6-(5-(1,3-dimethyl-2-oxo-7-(tetrahydro-2H-pyran-4-yl)-1,2-dihydroquinolin-5-yl)-5,6,7,8-tetrahydropyrido[3,2-d]pyrimidin-2-yl)-1-oxoisoindolin-2-yl)prop-1-yn-1-yl)benzofuran-3-yl)piperidine-2,6-dione] | 20 to 39 | 1 to 9.9 |
| Cc1cc(-c2ncc3c(n2)CCCN3c2cccc3c2cc(C)c(=O)n3C)cnc1C(=O)NCC#Cc1ccc2occ(C3CCC(=O)NC3=O)c2c1 (stereo not shown) [Example B45, 5-(5-(1,3-dimethyl-2-oxo-1,2-dihydroquinolin-5-yl)-5,6,7,8-tetrahydropyrido[3,2-d]pyrimidin-2-yl)-N-(3-(3-(2,6-dioxopiperidin-3-yl)benzofuran-5-yl)prop-2-yn-1-yl)-3-methylpicolinamide] | > 80 | 1 to 9.9 |
| COc1cc(-c2ncc3c(n2)CCCN3c2cccc3c2cc(C)c(=O)n3C)cnc1C(=O)NCC#Cc1ccc2occ(C3CCC(=O)NC3=O)c2c1 (stereo not shown) [Example B50, 5-(5-(1,3-dimethyl-2-oxo-1,2-dihydroquinolin-5-yl)-5,6,7,8-tetrahydropyrido[3,2-d]pyrimidin-2-yl)-N-(3-(3-(2,6-dioxopiperidin-3-yl)benzofuran-5-yl)prop-2-yn-1-yl)-3-methoxypicolinamide] | > 80 | 1 to 9.9 |
| CCC(=O)N1CCC(c2cc(N3CCCc4nc(-c5ccc(C(=O)NCC#Cc6ccc7occ(C8CCC(=O)NC8=O)c7c6)nc5)ncc43)c3cc(C)c(=O)n(C)c3c2)CC1 (stereo not shown) [Example B52, 5-(5-(1,3-dimethyl-2-oxo-7-(1-propionyl-piperidin-4-yl)-1,2-dihydroquinolin-5-yl)-5,6,7,8-tetrahydropyrido[3,2-d]pyrimidin-2-yl)-N-(3-(3-(2,6-dioxopiperidin-3-yl)benzofuran-5-yl)prop-2-yn-1-yl)picolinamide] | > 80 | < 1 |
| Cc1cc2c(N3CCCc4nc(-c5ccc(C(=O)NCC#Cc6ccc7c(c6)N(C6CCC(=O)NC6=O)CCCC7)nc5)ncc43)cc(C3CCOCC3)cc2n(C)c1=O (stereo not shown) [Example B57, 5-(5-(1,3-dimethyl-2-oxo-7-(tetrahydro-2H-pyran-4-yl)-1,2-dihydroquinolin-5-yl)-5,6,7,8-tetrahydropyrido[3,2-d]pyrimidin-2-yl)-N-(3-(1-(2,6-dioxopiperidin-3-yl)-2,3,4,5-tetrahydro-1H-benzo[b]azepin-8-yl)prop-2-yn-1-yl) picolinamide] | < 20 | > 1000 |
